From US6426366B1, “Pharmaceutical compositions comprising tyrphostins” (priority 1996, dated 2002)
“Also recorded” adds a separate entry of the source. Where two headings read alike, the source gives them in different places.

Experiments:
CD1 mice [1] = test system: CD1 mice
Excerpt: Each experimental group consisted of three mice and the results shown are the mean number of cells in a group±SD.

CD1 mice [2] = test: Reduction of doxorubicin-caused mouse mortality; format: in vivo
Description: (§1) 6 weeks old female CD1 mice were divided into the following groups:
i. Mice injected intraperitoneally (i.p.) with doxorubicin (20 mg/kg);
CD1 mice were divided into the following five groups:
i. Mice receiving, a single i.p. injection of 20 mg/kg of doxorubicin;
iii. Mice receiving a single i.p. injection of 20 mg/kg of AG1782 and two hours later an i.p. injection of 20 mg/kg of doxorubicin;
iv. Mice receiving a single i.p. injection of 20 mg/kg of AG126 and two hours later an i.p. injection of 20 mg/kg of doxorubicin.
The % mortality in each of the above groups was determined by scoring the number of dead mice every day until 10 days after injection.

CD1 mice [3] = test: Doxorubicin lymphotoxicity (weight of spleen and thymus); format: in vivo; details: doxorubicin 10 mg/kg i.p. alone; 72 hours
Description: 72 hours after doxorubicin administration the mice were sacrificed and the weight of the spleen and thymus of the mice was determined as parameters of lymphotoxicity. Each experimental group consisted of three mice and the results are mean no. of cells±SD. As control, the mice received an injection of the vehicle only instead of doxorubicin.

MCA-105 fibrosarcoma = MCA-105 fibrosarcoma lung metastases in mice; format: in vivo; details: for weight of the lungs of tumor bearing mice: single agent: AG1801 5 mg/kg, cisplatin 10 mg/kg or doxorubicin 10 mg/kg, 4 days after inoculation (FIG. 25)
Description: (§2) 2×10^5/mouse MCA-105 fibrosarcoma cells or Lewis Lung carcinoma cells and 5×10^4/mouse B-16 melanoma cells were injected into the tail vein of C57BL mice.
(§3) Twenty-four days after tumor inoculation, mice were sacrificed, lungs weighed and the number of metastases were scored. Each group contained 5 mice and the results are expressed as the means lungs' weights±SE.
C57BL mice were divided into the following groups:
Mice injected i.v. at the age of 6 weeks with 2×10^5 fibrosarcoma MCA105 cells and 4 days' later, receiving an injection comprising the vehicle only;
Mice injected i.v. at the age of 6 weeks with 2×10^5 fibrosarcoma MCA105 cells and 4 days' later, injected with 10 mg/kg of doxorubicin;

SK-28 human melanoma = SK-28 human melanoma tumor xenografts in nude mice; format: in vivo
Description: CD1 athymic mice (nu/nu) were inoculated i.v. with 4×10^5/mouse SK-28 human melanoma. Doxorubicin (4 mg/kg) was injected i.p. 4 days after tumor inoculation.

[4] = test system: primary rat cardiomyocytes cultures; test: Doxorubicin-induced cardiotoxicity in vitro (cellular beating); format: cell-based; details: doxorubicin 10 μM alone; 24 hours
Description: The cardiomyocyte cultures were divided into the following, four groups receiving:
Cells receiving doxorubicin at a concentration of 10 μM; and
The rate of beats-of clusters of cardiomyocytes (“mini-hearts”) was determined 24 hours after beginning of incubation.

CD1 mice [5] = test: Doxorubicin induced myelotoxicity (femur bone marrow nucleated cells, CFU); details: doxorubicin 10 mg/kg i.p. alone; 3 days (FIG. 12B)
Description: CD1 mice were divided into the following groups:
Mice receiving an i.p. injection of doxorubicin (10 mg/kg) alone;
Mice receiving one injection of the vehicle and two hours later an i.p. injection of doxorubicin (10 mg kg,).
3 days later, the number of bone marrow nucleated cells and colony forming units (CFU) in the femurs of the treated mice was determined (Nikerich, D. A., et al., J. Immunopharmacol., 8:299-313, 1986). Each group contained 3 mice and the results are expressed as a means±SD.
The number of femur nucleated bone marrow cells in the treated mice was determined three days (FIG. 13A) and at various times (FIG. 13B) post doxorubicini administration.
CD1 mice were divided into five groups:
Mice receiving the vehicle alone;
Mice receiving doxorubicin (10 mg/kg) alone;
Three days after doxorubicin administration, the mice were sacrificed and the number of nucleated cells in bone marrow was determined as described above.

CD1 mice [6] = test: Reduction of cisplatin-caused mouse mortality; format: in vivo; details: cisplatin 14 mg/kg alone
Excerpt: as §1

[7] = test system: Lewis Lung carcinoma cells; test: Lewis lung carcinoma lung metastases in mice; format: in vivo; details: agent by itself: cisplatin 4 mg/kg or AG1714 20 mg/kg (FIG. 21B)
Description: as §2, §3

CD1 mice [8] = test: Histopathological analysis of kidneys and small intestines after cisplatin; format: in vivo
Description: Histopathological analysis of the kidneys and small intestines of the non-treated and treated mice was performed using slices from formaline fixed tissues stained with hematoxylin eosin.

[9] = test system: human ovary carcinoma (OVCAR-3) cells; test: OVCAR-3 human ovary carcinoma tumor volume in athymic mice; format: in vivo; details: agent by itself: cisplatin 4 mg/kg or AG1714 20 mg/kg; twenty days (FIG. 23)
Description: Athymic mice were inoculated subcutaneously (s.c.) with human ovary carcinoma (OVCAR-3) cells (3×10^6 cells/site). […] Twenty days post tumor inoculation the short (S) and long (L) diameters of the tumor were measured and the tumor volume (V) was calculated according to the formula:
Each group contained 5 mice and the results are expressed as the means±SE.

CD1 female mice = test: 5 FU myelotoxicity (bone marrow nucleated cells); format: in vivo; details: 5 FU 80 mg/kg i.p. alone; five days (FIG. 15)
Description: CD1 female mice were divided into the following groups:
A control group receiving a single i.p. injection of the vehicle only (co-solvent: propylene carbonate-cremophor-saline);
Mice receiving a single i.p. injection of 5-fluorouracil (5 FU) at a dose of 80 mg/kg;
Five days after the administration of 5 FU to the mice, the mice were sacrificed and the number of nucleated cells in the bone marrow of one femur, were counted. Each group of mice consisted of two or three mice and the results shown are the mean number of cells counted±SD.

CD1 mice [10] = test: Cisplatin nephrotoxicity: serum creatinine and BUN; format: in vivo; details: tyrphostin 10 mg/kg i.p. 2 h before cisplatin 14 mg/kg i.p.; four days (FIG. 5)
Excerpt: Mice in the control croup received injections of the vehicle only (a stock solution of ethanol: chemaphore (50:50) diluted with saline). […] Each group consisted of three mice and the results are shown as mean levels of the measured parameter±SD.

[11] = test system: A9 mouse fibroblastic cells; test: TNF-α-induced apoptosis and Go/G1 arrest (FACS, propidium iodide); format: cell-based
Description: In order to test the effect of tyrphostins on the TNF-α-induced apoptosis of the cells, A9 mouse fibroblastic cells were incubated for two hours with cycloheximide (50 μg/ml) after which the various tyrphostins were added at a final concentration of 20 μM except AG1801 that was added at the final concentration of 5 μM. Following one hour incubation with the tyrphostins, TNF-α was added to the cells at a concentration of 0.2 ng/ml and the cells were incubated for an additional ten hours.

A-9 cells = test: TNF-induced cytotoxicity in vitro; format: cell-based, mouse; details: AG (20 μM)
Description: Following one hour incubation with the tyrphostins, TNF-α was added to the cells at a concentration of 0.2 ng/ml and the cells were incubated for an additional ten hours. At the end of ten hours, the cell cultures were analyzed by FACS using propidium iodide and the extent of apoptosis in each of the cell cultures (seen as DNA fragmentation) was determined (see Novogrodsky, A., et al., Science, 264:1319-1322, 1994).
The effect of tyrphostins on TNF-induced cytotoxicity was determined in vitro using A-9 cells as described in Example 39 above.

CD1 mice [12] = test: LPS-induced lethal toxicity in vivo; details: tyrphostin 20 mg/kg i.p. two hours prior to E. coli LPS […] i.p.
Description: In addition, the effect of tyrphostin on TNF mediated cytotoxicity in vivo was determined in mice injected with LPS (which induces TNF toxicity in vivo). E. coli LPS the concentration of 1.3 mg/mouse was injected i.p. to CD1 mice. While control mice were injected in addition with the vehicle only, the remaining mice were injected with the various tyrphostins (20 mg/kg) i.p. two hours prior to LPS injection.

[13] = Cyclophosphamide (50 mg/kg) alone (−), 72 hours
[14] = Table 6A, Doxorubicin (8 mg/kg) alone
[15] = Table 5A, Doxorubicin (4 mg/kg) alone
[16] = Table 5A, Doxorubicin (8 mg/kg) alone
[17] = Table 5B, Doxorubicin (4 mg/kg) alone
[18] = Table 5B, Doxorubicin (8 mg/kg) alone

Description for B-16 melanoma: Mice were injected i.v. with 2×10^5 B-16 melanoma cells and 4 days after tumor inoculation each mouse received a single i.p. injection of doxorubicin (4 mg/kg or 8 mg/kg).

With O=P1(N(CCCl)CCCl)NCCCO1 (stereo not drawn) [Cyclophosphamide, cyclophosphamide] the “Nucleated cells in bone marrow (× 10^6)” value (CD1 mice [1]; [13]) was 6.2 × 10^6, the “Spleen” value (CD1 mice [1]; [13]) was 52 mg and the “Thymus” value (CD1 mice [1]; [13]) was 39 mg. For the same molecule, the “number of nucleated cells in the bone marrow, spleen and thymus” value (CD1 mice [1]; cyclophosphamide 50 mg/kg alone) was “significant reduction in the number of nucleated cells”.
With COc1cccc2c1C(=O)c1c(O)c3c(c(O)c1C2=O)C[C@@](O)(C(=O)CO)C[C@@H]3O[C@H]1C[C@H](N)[C@H](O)[C@H](C)O1 [Doxorubicin, doxorubicin] the “mortality of the mice” value (CD1 mice [2]; 10 i.p. doxorubicin injections 5 mg/kg over 21 days, alone) was “high mortality”, the “% mortality” value (CD1 mice [2]; doxorubicin 20 mg/kg i.p. alone, within a week after injection) was 90% and the “weight of spleens and thymuses” value (CD1 mice [3]) was “significant reduction in the weight of spleens”. For the same molecule, the “Mortality (dead/total)” value (MCA-105 fibrosarcoma; Table 6A, Doxorubicin (4 mg/kg) alone) was 0/5, the “Lungs' weight (mg + SEM)” value (MCA-105 fibrosarcoma; [14]) was 170 ± 4 mg and the “Mortality (dead/total)” value (MCA-105 fibrosarcoma; [14]) was 5/8. The “Mortality, percent in brackets” value (MCA-105 fibrosarcoma; [14]) was 62.5%, the “weight of the lungs of tumor bearing mice” value (MCA-105 fibrosarcoma) was “reduced the weight of the mice's lungs to a weight similar to that of control non tumor bearing mice” and the “growth of the SK-28 tumor (lungs' weight, metastases)” value (SK-28 human melanoma; agent by itself: doxorubicin 4 mg/kg or AG1714 20 mg/kg, 24 days (FIG. 22)) was “markedly suppressed the growth”. The “Cellular beating (beats/min)” value [4] was 15 ± 1.3 beats/min, the “number of beats per minute relative to control cultures” value [4] was “about 20%” and the “Mortality (dead/total)” value (B-16 melanoma; [15]) was 0/4. The “No. of lungs' metastases (+ SD)” value (B-16 melanoma; [15]) was 7 ± 4, the “Mortality (dead/total)” value (B-16 melanoma; [16]) was 3/4 and the “Mortality, percent in brackets” value (B-16 melanoma; [16]) was 75%. For the same molecule, the “No. of lungs' metastases (+ SD)” value (B-16 melanoma; [16]) was 1, the “Lungs' weight (mg + SEM)” value (B-16 melanoma; [17]) was 306 ± 12 mg and the “Mortality (dead/total)” value (B-16 melanoma; [17]) was 0/6. For the same molecule, the “Mortality (dead/total)” value (B-16 melanoma; [18]) was 7/8, the “Mortality, percent in brackets” value (B-16 melanoma; [18]) was 88% and the “reduction in CFU” value (CD1 mice [5]) was 55%.
With N.N.[Cl][Pt][Cl] [Cisplatin, cisplatin] the mortality (CD1 mice [6]) was “all the mice in the group receiving cisplatin alone died within ten days”, the “anti-tumor effect (lungs' weight, established lung metastases)” value [7] was “partial anti-tumor effect” and the “anti-tumor effect (lungs' weight, established lung metastases)” value (MCA-105 fibrosarcoma; agent by itself: cisplatin 4 mg/kg or AG1714 20 mg/kg i.p., 24 days (FIG. 21A)) was “markedly inhibited the growth”. For the same molecule, the “weight of the lungs of tumor bearing mice” value (MCA-105 fibrosarcoma) was “reduced the weight of the mice's lungs to a weight similar to that of control non tumor bearing mice”, the histopathology of kidneys (CD1 mice [8]; cisplatin 14 mg/kg alone (FIG. 7B)) was “large proteinaceous plaques in the proximal tubals; also recorded: large proteinaceous plaques in the proximal tubules” and the “histopathology of small intestine” value (CD1 mice [8]; cisplatin 14 mg/kg alone (FIG. 7E)) was “severe necrosis and disintegration of the columnar intestinal epithelial cells; also recorded: severe necrosis and damage”. For the same molecule, the “anti-tumor effect (tumor volume)” value [9] was “marked anti-tumor effect”, the “weight of the lungs of tumor bearing mice” value (SK-28 human melanoma; single agent: cisplatin or AG1801 (FIG. 26)) was “reduced the weight of the lungs of the tumor bearing mice to an extent” and the “anti-tumor effect (lungs' weight, established lung metastases)” value (B-16 melanoma; agent alone: Cisplatin (4 mg/kg) or AG1714 (20 mg/kg) (FIG. 21C)) was “not effective”.
O=c1[nH]cc(F)c(=O)[nH]1 [5 FU, 5-fluorouracil] was tested, and the “number of nucleated cells in the bone marrow” value (CD1 female mice) was “decrease in the number of nucleated cells”.
N#CC(=Cc1ccc([N+](=O)[O-])cc1)C(N)=S [AG1744] was tested, and the “nephrotoxicity of cisplatin (serum creatinine level)” value (CD1 mice [10]) was “markedly reduced the nephrotoxicity of cisplatin”.
TNF-α was tested, and the “Cell cycle % G1” value ([11]; TNF-α (0.2 ng/ml) alone) was 85.8%, the “Cell cycle % G2 + M” value ([11]; TNF-α (0.2 ng/ml) alone) was 6.6% and the “Cell cycle % S” value ([11]; TNF-α (0.2 ng/ml) alone) was 7.6%. The Apoptosis (%) ([11]; Table 9, TNF-α (0.2 ng/ml) alone) was 28.7%.
N#CC(C#N)=Cc1ccc([N+](=O)[O-])c(O)c1 [AG126] was tested, and the “live cells, % of control” value (A-9 cells; TNF 0.05 ng/ml) was 75 % of control, the “live cells, % of control” value (A-9 cells; TNF 0.2 ng/ml) was 49 % of control and the “live cells, % of control” value (A-9 cells; TNF 1.0 ng/ml) was 33 % of control. For the same molecule, the “live cells, % of control” value (A-9 cells; TNF None) was 107 % of control, the “% alive mice” value (CD1 mice [12]) was 80% and the alive/total (CD1 mice [12]) was 4/5. For the same molecule, the “Apoptosis (%)” value ([11]; TNF-α (0.2 ng/ml) +, ten hours, cycloheximide 50 μg/ml, tyrphostins 20 μM, except AG1801 5 μM) was 19.4% and the “Apoptosis (%)” value ([11]; TNF-α −, cycloheximide 50 μg/ml, tyrphostins 20 μM, except AG1801 5 μM) was 8.3%.
